# Measurements published in US20210122780A1, “COMPOSITIONS FOR THE PREVENTION AND TREATMENT OF PARKINSON'S DISEASE” (Metselex, Inc., priority 2018, published 2021).
# “Also recorded” adds a separate entry of the source.
# Tests used:
# [1] = tested on: Alkaline phosphatase from bovine intestinal mucosa; experiment: Alkaline phosphatase activation of prodrugs (31P NMR); assay type: biochemical; conditions: in vitro, FIG. 5
# Experimental: Alkaline phosphatase activation of prodrugs 3 and 19d. Alkaline phosphatase from bovine intestinal mucosa (Sigma-Aldrich, P5521-2KU) was dissolved in 2.0 mL of a 0.100 M sodium glycine buffer containing 1.0 mM ZnCl2 and 1.0 mM MgCl2. This stock solution was stored at 4° C. between uses.
# (§1) Compound 19d (10.0 mg, 0.016 mmol) or compound 3 (8.7 mg, 0.016 mmol) were dissolved in 0.6 mL of a 0.100 M tris glycine buffer solution containing 1.0 mM ZnCl2 and 1.0 mM MgCl2. […] 50 μL of the previously prepared AP stock solution was further diluted by addition to 0.950 mL of a 0.100 M tris glycine buffer containing 1.0 mM ZnCl2 and 1.0 mM MgCl2. 10.0 μL of this diluted AP solution was added to the prodrug solution by syringe. A series of 42 inverse-gated decoupled ^31P NMR's were taken (24 scans each, approximately one minute acquisition time). Conversion (%) was determined from the relative integration of the starting material and product peaks, NMR time stamps were used to determine time. Each experiment was repeated three times.
# Primary rat hepatocytes [2] = experiment: Cell viability and apoptosis assays, TGF-β1-exposed hepatocytes; assay type: cell-based; conditions: 100 μM, with or without 3 U/ml alkaline phosphatase, TGF-β1 24 h
# Experimental: Cell culture and treatments. Primary rat hepatocytes were isolated from male rats (100-150 g) by collagenase perfusion. Briefly, rats were anesthetized with phenobarbital sodium (100 mg/kg body weight) injected into the peritoneal cavity. After administration of heparin (200 units/kg body weight) in the tail vein, the animals' abdomen was opened and the portal vein exposed and cannulated. The liver was then perfused at 37° C. in situ with a calcium-free Hanks' Balanced Salt Solution (HBSS) for ˜10 min, and then with 0.05% collagenase type IV in calcium-present HBSS for another 10 min. […] Cell viability was determined by trypan blue exclusion and was typically 80-85%. […]
# Cell viability assays. […] Finally, absorbance was measured at 490 nm, with 690 nm as reference, using a Bio-Rad model 680-microplate reader (Bio-Rad Laboratories, Hercules, Calif., USA).
# To assess cellular viability, the CellTiter-Fluor™ viability assay was used (Promega Corp., Madison, Wis., USA). Briefly, viable cells are measured using a fluorogenic, cell-permeant, peptide substrate (Gly-Phe-AFC), which is cleaved by the live-cell protease activity to generate a fluorescent signal proportional to the number of living cells. Cells were incubated with an equal volume of CellTiter-Fluor™ Reagent for 30 min at 37° C. and resulting fluorescence (380-400 nmEx/505 nmEm) measured using a GloMax+ Multi Detection System (Promega Corp.). […]
# [3] = assay type: physicochemical
# Experimental: Measurement of chemical stability of phosphorylated compounds. 4.0 mg of prodrug (19b, 19c, or 19d) were dissolved in 1.0 mL D2O. A sealed capillary tube containing phenylphosphonic acid dissolved in D2O was added as a standard. At time=0, a ^1H NMR spectrum was obtained and the proton signal at […]5.51 was integrated (It=0) relative to the aromatic signals from phenylphosphonic acid. After 7 days at rt, a new NMR spectrum was taken and the proton signal at δ 5.51 was integrated again (It=7). The percent starting material remaining was It=7/It=0×100. Each experiment was repeated three times. Chemical stability results obtained either by measuring the disappearance of starting material relative to the internal standard by ^31P NMR or by using inverse-gated decoupled phosphorus NMR and integrating starting material and product were very similar to the numbers obtained using ^1H NMR. For 19e, 4.0 mg 19b was dissolved in D2O and an additional equivalent of Tris added (the stoichiometry was confirmed by ^1H NMR) and the experiment conducted as above.
# [4] = Aqueous solubility of prodrug salts; conditions: water
# [5] = assay type: physicochemical; conditions: after one day at rt
# Experimental: Chemical stability in pH 7.4 tris-buffered saline. 4.0 mg of prodrug 19d was dissolved in 0.9 mL H2O. To this solution was added 0.1 mL of tris-buffered saline (BM-300 from Boston BioProducts), containing tris (250 mM), KCl (27 mM), and NaCl (1.37 M). A sealed capillary tube containing phenylphosphonic acid dissolved in D2O was added as a standard. Chemical stability results were obtained by measuring the disappearance of starting material relative to the internal standard by ^31P NMR. The experiment was repeated three times. The standard deviation was ±3%.
# [6] = Stability in tris glycine buffer before AP addition (31P NMR); assay type: physicochemical; conditions: 0.100 M tris glycine buffer, 1.0 mM ZnCl2, 1.0 mM MgCl2, 1 h
# Experimental: as §1
# SH-SY5Y cells [7] = tested on: SH-SY5Y cells
# Experimental: (§3) Human dopaminergic neuronal cell line, SH-SY5Y, was cultured in DMEM/F12 medium supplemented with 10% FBS (v/v), penicillin (100 U/m)-streptomycin (100 μg/ml) in 5% CO2 at 37° C. […] Usually, the culture medium was changed to DMEM/F12 medium with 0.5% FBS before any treatment to reduce the serum effect. In order to prevent the direct interaction between the treated chemicals, the culture medium was changed to fresh low-serum medium at the ent of pretreatment. UDCA was dissolved in ethanol as a 100× stock solution and diluted to the desired final concentrations. To estimate cell viability, 3-(4,5-dimetnylthiazol-2-yl)-2,5-diphenyltetrazolium bromide (MTT) reduction assay was performed. After cells were treated ad culture medium was removed, MTT solution (50 μg, 1 mg/ml in phosphate buffered saline, PBS) was added to each well in 96-well plate and incubated for 4 h at 37° C. The medium was carefully removed, 100 μl DMSO added to each well, and the plate agitated on an orbital shaker for 15 min to dissolve the formazan. The absorbance was measured at 540 nm using a microplate reader (SepctraMax M2, Molecular Devices).
# SH-SY5Y cells [8] = experiment: MTT cell viability, SNP-induced cytotoxicity
# Experimental: as §3
# Primary rat hepatocytes [9] = experiment: Microarray gene expression profiling (Affymetrix Rat Expression Array 230A); assay type: cell-based; conditions: 100 μM UDCA, 24 h
# Experimental: We determined the global profile of genes regulated by UDCA by using Affymetrix GeneChip® Rat Expression Array 230A, consisting of approximately 16,000 transcripts and variants. cRNA prepared from vehicle-treated cells was used for comparative analysis. The relative levels of gene expression after 24 h treatment of hepatocytes with 100 μM UDCA were compared by plotting the average difference between cells, and determining the fold change in gene expression. […] We also assessed the specificity and sensitivity of the microarray analysis. Hierarchical clustering was performed using specific gene subsets.
# SH-SY5Y cells [10] = experiment: Nuclear staining (Hoechst 33342/PI) for apoptosis and necrosis; assay type: cell-based, human; conditions: pretreatment prior to SNP 1 mM 24 h
# Experimental: For the fluorescent detection of apoptotic and necrotic cells, nuclear staining with Hoechst dye 33342 and propidium iodide (PI) was performed. SH-SY5Y cells were exposed to SNP (1 mM) for 24 h with or without pretreatment with UDCA or YS. After fixation with 1% paraformaldehyde (PBS) for 30 min at room temperature, cells were washed with PBS and then stained with Hoechst 33342 (10 μM) for 10 min. Cells were washed with PBS and further stained with PI (10 μM) for 10 min. Stained cells were washed with PBS and observed under a fluorescent microscopy. The apoptotic cells were determined as bright condensed and fragmented nuclei. PI positive cells stained with pink to red color were counted as necrotic cells.
# Bcl-2, Bax, cytochrome c = experiment: Immunoblot analysis of Bcl-2, Bax, cytochrome c; assay type: cell-based, human
# Experimental: Whole cell proteins were extracted using RIPA buffer (PBS, 1% NP-40, 0.5% Na deoxycholate, 0.1% SDS, 0.1 mg/ml PMSF, 30 mg/ml aprotinin, 1 mM Na3VO4). Cells were washed twice with PBS, lysed with RIPA buffer for 30 min on ice, and then centrifuged at 14,000×g for 10 min at 4° C. The supernatants were used as the total cell lysates. In some experiments, mitochondrial fraction was prepared from SH-Sy5Y cells using mitochondrial/cytosolic fraction kit (Biovision, Inc., Mountain View) according to the manufacturer's protocol. Protein concentration was determined by BCA protein assay kit (BioRad, Hercules, Calif.) using bovine serum albumin as a standard. […] The membrane was flocked in fresh blocking buffer (5% nonfat dry milk in Tris-buffered saline, pH 7.4, and containing 0.1% Tween 20) for 2 h at room temperature and rinsed in TBST buffer (0.1% Tween 20 in Tris-buffered saline, pH 7.4). The membrane was incubated at 4° C. with the following primary antibodies at dilutions of 1/1000: Bax, cytochrome c, Cox-4 or 1/4000: Bcl-2, actin. After three times washing with TBST buffer, membranes were incubated with horse radish peroxidase (HRP)-conjugated secondary antibodies (1:2000 dilutions) for 2 h at room temperature. Subsequently, the membrane was washed in TBST and the immunoreactive bands were detected by ECL chemiluminescence kit (GE Healthcare, USA). Protein bands were quantified by densitometric analysis.
# SH-SY5Y cells [11] = experiment: Mitochondrial membrane potential (JC-1); assay type: cell-based, human
# Experimental: Anaspec Inc.). JC-1 preferentially accumulates in mitochondria as red aggregates in normal conditions but it exists as green monomers in the cytosol when MMP collapsed during apoptosis. The ratio of red/green fluorescence correlates with MMP. […] Next, 5 μg/ml JC-1 was added and incubated at 37° C. for 15 min in dark. After wash three times with PBS, MMP was measured at 535/590 nm (Ex/Em) for red fluorescence and 485/535 (Ex/Em) for green fluorescence using a fluorescence multimode microplate reader (Infinite 200; Tecan). Results were calculated as the ratio of red-to-green fluorescence and the values were expressed as the percentage over control.
# SH-SY5Y cells [12] = experiment: Total ROS production (H2DCFDA); assay type: cell-based, human; conditions: 1 mM SNP
# Experimental: (§2) After washing with Hank's balanced salt solution (HBSS), cells were incubated with 20 μM H2DCFDA or 50 μM DHR at 37° C. for 30 min, and then rinsed with HBSS. The fluorescence intensity was measured using an automatic fluorescence microplate reader (SpectraMax M2, Molecular Devices) at an excitation wavelength of 485 nm and an emission of 535 nm. The values were expressed as a percentage of fluorescence intensity to the untreated control group. The production of NO was determined by measuring nitrite, a stable oxidation product of NO in the culture medium. […] After a 10-min reaction, the absorbance at 550 nm was measured in a microplate reader (VersaMax, Molecular Devices). Sodium nitrite (NaNO2) was used as a standard to calculate nitrite concentrate and the values were expressed in micromoles.
# SH-SY5Y cells [13] = experiment: NO production (Griess reagent, nitrite); assay type: cell-based, human; conditions: SNP 24 h
# Experimental: as §2
smiles,measurement,setting,value
"CC(CCC(=O)OCOP(=O)(O)O)C1CCC2C3C(O)CC4CC(O)CCC4(C)C3CCC12C (centres unmarked) [Compound 19, ursodeoxycholic acid phosphonooxymethoxy ester]",rate of alkaline phosphatase catalyzed release of UDCA,[1],faster than prodrug 3
same,anti-apoptotic potency in in vitro assays,Primary rat hepatocytes [2],"highly active in these assays, but required activation by exogenous alkaline phosphatase"
"CC(CCC(=O)OCOP(=O)(O)O)C1CCC2C3C(O)CC4CC(O)CCC4(C)C3CCC12C (centres unmarked) [Compound 19d, ursodeoxycholic acid phosphonooxymethoxy ester]",percent starting material remaining,[3]; after one week at rt in D2O solution,88%
same,chemical stability in solution,"[3]; solution, ambient temperature",decomposed at a much slower rate
same,stability on cold storage,"[3]; stored in a freezer / cold, listed as mono-Tris salt of 19",stable for extended periods when stored cold
same,"aqueous solubility, rapidly dissolving at all concentrations tested",[4],> 20 mg/mL
same,rate of alkaline phosphatase catalyzed release of UDCA,[1],more rapidly released
same,percent remaining in pH 7.4 tris buffer,[5],81%
same,decomposition by 31P NMR in buffer,[6],Neither compound showed decomposition
COc1ccc2c(c1)c(C1=C(c3c[nH]c4ccccc34)C(=O)NC1=O)cn2CCCN(C)C [Go6983],"cell viability, inhibitor alone",SH-SY5Y cells [7],had no effects on cell viability
same,impact on UDCA-mediated protection against SNP-induced cytotoxicity,"SH-SY5Y cells [8]; inhibitor 1 h, UDCA 200 μM 1 h, SNP 1 mM 24 h",did not have significant impact
"C[C@H](CCC(=O)O)[C@H]1CC[C@H]2[C@@H]3[C@@H](O)C[C@@H]4C[C@H](O)CC[C@]4(C)[C@H]3CC[C@]12C [UDCA, ursodeoxycholic acid]",altered genes fulfilling the filtering criteria,Primary rat hepatocytes [9],96 genes
same,genes down-regulated,Primary rat hepatocytes [9],68 genes
same,genes up-regulated,Primary rat hepatocytes [9],28 genes
same,"genes with alterations in expression, greater than 1.5-fold change",Primary rat hepatocytes [9],Approximately 441 genes
same,share of genes with alterations in expression,Primary rat hepatocytes [9],~2.76%
same,apoptotic rate,SH-SY5Y cells [10],8.45±2.01%
same,ratio of Bcl-2/Bax,"Bcl-2, Bax, cytochrome c; UDCA per se",2.52±0.16 fold of control
same,ratio of Bcl-2/Bax,"Bcl-2, Bax, cytochrome c; pretreatment with UDCA prior to SNP treatment",2.21±0.09 fold of control
same,cytochrome c release from the mitochondria into the cytosol,"Bcl-2, Bax, cytochrome c; pretreatment with UDCA, SNP 1 mM",1.41±0.06 fold of control
same,"cell viability, substance alone","SH-SY5Y cells [8]; 24 h at doses of 50-200 μM, no SNP",no obvious change in the viability
same,SNP-induced loss of cell viability / cytotoxicity,"SH-SY5Y cells [8]; pretreatment 1 h, then 1 mM SNP 24 h",prevented; also recorded: significantly attenuated
same,activity at 50 µM,"SH-SY5Y cells [11]; Homo sapiens, SH-SY5Y, 50 μM pretreatment, 1 mM SNP 12 h, read-out: MMP, % of control group",71%
same,activity at 100 µM,"SH-SY5Y cells [11]; Homo sapiens, SH-SY5Y, 100 μM pretreatment, 1 mM SNP 12 h, read-out: MMP, % of control group",88%
same,activity at 200 µM,"SH-SY5Y cells [11]; Homo sapiens, SH-SY5Y, 200 μM pretreatment, 1 mM SNP 12 h, read-out: MMP, % of control group",87%
same,"MMP, substance alone","SH-SY5Y cells [11]; no SNP, FIG. 4B",did not show any alterations in MMP
same,"ROS generation, % of SNP-treated group",SH-SY5Y cells [12]; 50 μM pretreatment,79.68%
same,"ROS generation, % of SNP-treated group",SH-SY5Y cells [12]; 100 μM pretreatment,72.59%
same,"ROS generation, % of SNP-treated group",SH-SY5Y cells [12]; 200 μM pretreatment,58.09%
same,NO production compared with the group treated with SNP alone,SH-SY5Y cells [13]; 50 μM pretreatment,91.44%
same,NO production compared with the group treated with SNP alone,SH-SY5Y cells [13]; 100 μM pretreatment,82.88%
same,NO production compared with the group treated with SNP alone,SH-SY5Y cells [13]; 200 μM pretreatment,77.26%
